In the experiment the target is CD73 (Homo sapiens (Human), UniProt P21589). The experiment can be described thus: Biochemical assay: inhibition of CD73 activity (AMP hydrolysis, Malachite Green readout). Conditions: CD73 0.3208 nM, AMP 15 μM, 25 mM Tris-HCl pH 7.4, RT, absorbance 620 nm. In outline: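 Phosphate from AMP hydrolysis (15 μM AMP, 10 min, RT) was detected by Malachite Green absorbance to give IC50s. Enzyme at 320 pM was first exposed 15 min to compounds, dosed from 100 μM in ½-log steps, in Tris pH 7.4 buffer with MgCl2, Brij-35 and BSA.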

pIC50: −log10 of the molar value. Bounds are passed on as bounds.

Chain of CD73 (P21589 27-574): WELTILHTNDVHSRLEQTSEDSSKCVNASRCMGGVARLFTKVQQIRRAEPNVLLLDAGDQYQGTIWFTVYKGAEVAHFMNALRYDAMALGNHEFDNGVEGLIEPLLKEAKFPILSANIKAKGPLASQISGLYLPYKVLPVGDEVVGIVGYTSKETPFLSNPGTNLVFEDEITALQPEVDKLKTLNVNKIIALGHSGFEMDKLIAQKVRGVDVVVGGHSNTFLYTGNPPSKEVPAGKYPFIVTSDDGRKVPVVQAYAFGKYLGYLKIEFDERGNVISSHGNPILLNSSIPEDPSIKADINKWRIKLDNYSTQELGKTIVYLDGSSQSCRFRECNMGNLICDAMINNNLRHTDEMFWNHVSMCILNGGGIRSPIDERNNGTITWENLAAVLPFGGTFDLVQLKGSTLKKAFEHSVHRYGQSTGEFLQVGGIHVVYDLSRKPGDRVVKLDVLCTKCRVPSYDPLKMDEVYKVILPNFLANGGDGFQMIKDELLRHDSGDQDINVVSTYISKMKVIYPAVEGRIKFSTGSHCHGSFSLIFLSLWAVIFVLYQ

Compound `O=P(O)(O)C(CO)(Cc1ncccn1)OC[C@H]1O[C@@H](n2ncc3c(NC4CCCC4)nc(Cl)nc32)[C@H](O)[C@@H]1O` (mixture of isomers) [Example 168, rac-(2-(((2R,3S,4R,5R)-5-(6-chloro-4-(cyclopentylamino)-1H-pyrazolo[3,4-d]pyrimidin-1-yl)-3,4-dihydroxytetrahydrofuran-2-yl)methoxy)-1-hydroxy-3-(pyrimidin-2-yl)propan-2-yl)phosphonic acid] had a pIC50 not below 7.00. To `CS(=O)(=O)C(OC[C@H]1O[C@@H](n2ncc3c(NC4CCCC4)nc(Cl)nc32)[C@H](O)[C@@H]1O)P(=O)(O)O` (stereo partly drawn) [Example 38, ((((2R,3S,4R,5R)-5-(6-chloro-4-(cyclopentylamino)-1H-pyrazolo[3,4-d]pyrimidin-1-yl)-3,4-dihydroxytetrahydrofuran-2-yl)methoxy)(methylsulfonyl)methyl)phosphonic acid] belongs 6.00 to 7.00. To `COCC(C)(OC[C@H]1O[C@@H](n2ncc3c(NC4CCCC4)nc(CO)nc32)[C@H](O)[C@@H]1O)P(=O)(O)O` (stereo partly drawn) [Example 90, (2-(((2R,3S,4R,5R)-5-(4-(Cyclopentylamino)-6-(hydroxymethyl)-1H-pyrazolo[3,4-d]pyrimidin-1-yl)-3,4-dihydroxytetrahydrofuran-2-yl)methoxy)-1-methoxypropan-2-yl)phosphonic acid] belongs not below 7.00; to `O=P(O)(O)C(CO)OC[C@H]1O[C@@H](n2ncc3c(NC4CCCC4)cc(Cl)nc32)[C@H](O)[C@@H]1O` (stereo partly drawn) [Example 57, (1-(((2R,3S,4R,5R)-5-(6-Chloro-4-(cyclopentylamino)-1H-pyrazolo[3,4-b]pyridin-1-yl)-3,4-dihydroxytetrahydrofuran-2-yl)methoxy)-2-hydroxyethyl)phosphonic acid], not below 7.00.

Take `COC[C@@](C)(OC[C@H]1O[C@@H](n2ncc3c(NC4CCCC4)nc(Cl)nc32)[C@H](O)[C@@H]1O)P(=O)(O)O` [Example 65, ((S)-2-(((2R,3S,4R,5R)-5-(6-chloro-4-(cyclopentylamino)-1H-pyrazolo[3,4-d]pyrimidin-1-yl)-3,4-dihydroxytetrahydrofuran-2-yl)methoxy)-1-methoxypropan-2-yl)phosphonic acid]: the pIC50 is not below 7.00.

`C[C@H](P(=O)(O)O)S(=O)(=O)C[C@H]1O[C@@H](n2ncc3c(NC4CCCC4)nc(Cl)nc32)[C@H](O)[C@@H]1O` [Example 7, ((R)-1-((((2S,3S,4R,5R)-5-(6-Chloro-4-(cyclopentylamino)-1H-pyrazolo[3,4-d]pyrimidin-1-yl)-3,4-dihydroxytetrahydrofuran-2-yl)methyl)sulfonyl)ethyl)phosphonic acid] gave a pIC50 not below 7.00. Next, `COC[C@@](C)(OC[C@H]1O[C@@H](n2nnc3c(NC4CCCC4)cc(Cl)nc32)[C@H](O)[C@@H]1O)P(=O)(O)O` [Example 143, ((S)-2-(((2R,3S,4R,5R)-5-(5-chloro-7-(cyclopentylamino)-3H-[1,2,3]triazolo[4,5-b]pyridin-3-yl)-3,4-dihydroxytetrahydrofuran-2-yl)methoxy)-1-methoxypropan-2-yl)phosphonic acid]: not below 7.00; `O=C(c1ccccc1)C(OC[C@H]1O[C@@H](n2ncc3c(NC4CCCC4)nc(Cl)nc32)[C@H](O)[C@@H]1O)P(=O)(O)O` (stereo partly drawn) [Example 41, (1-(((2R,3S,4R,5R)-5-(6-chloro-4-(cyclopentylamino)-1H-pyrazolo[3,4-d]pyrimidin-1-yl)-3,4-dihydroxytetrahydrofuran-2-yl)methoxy)-2-oxo-2-phenylethyl)phosphonic acid]: 6.00 to 7.00. To `O=P(O)(O)C(CO)(Cc1nc[nH]n1)OC[C@H]1O[C@@H](n2ncc3c(NC4CCCC4)nc(Cl)nc32)[C@H](O)[C@@H]1O` (mixture of isomers) [Example 219, rac-(2-(((2R,3S,4R,5R)-5-(6-chloro-4-(cyclopentylamino)-1H-pyrazolo[3,4-d]pyrimidin-1-yl)-3,4-dihydroxytetrahydrofuran-2-yl)methoxy)-1-hydroxy-3-(1H-1,2,4-triazol-3-yl)propan-2-yl)phosphonic acid] belongs not below 7.00. To `O=P(O)(O)[C@](CO)(Cc1nn[nH]n1)OC[C@H]1O[C@@H](n2ncc3c(NC4CCC4)nc(Cl)nc32)[C@H](O)[C@@H]1O` (racemic) [Example 214, rac-((R)-2-(((2S,3R,4S,5S)-5-(6-chloro-4-(cyclobutylamino)-1H-pyrazolo[3,4-d]pyrimidin-1-yl)-3,4-dihydroxytetrahydrofuran-2-yl)methoxy)-1-hydroxy-3-(2H-tetrazol-5-yl)propan-2-yl)phosphonic acid] belongs not below 7.00; to `O=C(O)C(OC[C@H]1O[C@@H](n2ncc3c(NC4CCCC4)nc(Cl)nc32)[C@H](O)[C@@H]1O)P(=O)(O)O` (stereo partly drawn) [Example 28, 2-(((2R,3S,4R,5R)-5-(6-chloro-4-(cyclopentylamino)-1H-pyrazolo[3,4-d]pyrimidin-1-yl)-3,4-dihydroxytetrahydrofuran-2-yl)methoxy)-2-phosphonoacetic acid], not below 7.00; to `O=P(O)(O)C(CO)(COCC(F)(F)F)OC[C@H]1O[C@@H](n2ncc3c(NC4CCCC4)nc(Cl)nc32)[C@H](O)[C@@H]1O` (mixture of isomers) [Example 207, rac-(2-(((2R,3S,4R,5R)-5-(6-chloro-4-(cyclopentylamino)-1H-pyrazolo[3,4-d]pyrimidin-1-yl)-3,4-dihydroxytetrahydrofuran-2-yl)methoxy)-1-hydroxy-3-(2,2,2-trifluoroethoxy)propan-2-yl)phosphonic acid], not below 7.00.

As to `O=P(O)(O)[C@](CO)(COCc1ccccc1)OC[C@H]1O[C@@H](n2ncc3c(NC4CCCC4)nc(Cl)nc32)[C@H](O)[C@@H]1O` (racemic) [Example 179, rac-((R)-1-(benzyloxy)-2-(((2R,3S,4R,5R)-5-(6-chloro-4-(cyclopentylamino)-1H-pyrazolo[3,4-d]pyrimidin-1-yl)-3,4-dihydroxytetrahydrofuran-2-yl)methoxy)-3-hydroxypropan-2-yl)phosphonic acid], the pIC50 was not below 7.00. Next, `COC[C@](C)(OC[C@H]1O[C@@H](n2ncc3c(NCC4CC4)nc(Cl)nc32)[C@H](O)[C@@H]1O)P(=O)(O)O` [Example 131, ((R)-2-(((2R,3S,4R,5R)-5-(6-chloro-4-((cyclopropylmethyl)amino)-1H-pyrazolo[3,4-d]pyrimidin-1-yl)-3,4-dihydroxytetrahydrofuran-2-yl)methoxy)-1-methoxypropan-2-yl)phosphonic acid]: not below 7.00; `CC(CO)(OC[C@H]1O[C@@H](n2ncc3c(N[C@@H]4CCC45CCC5)nc(Cl)nc32)[C@H](O)[C@@H]1O)P(=O)(O)O` (stereo partly drawn) [Example 135, (2-(((2R,3S,4R,5R)-5-(6-chloro-4-(((R)-spiro[3.3]heptan-1-yl)amino)-1H-pyrazolo[3,4-d]pyrimidin-1-yl)-3,4-dihydroxytetrahydrofuran-2-yl)methoxy)-1-hydroxypropan-2-yl)phosphonic acid]: not below 7.00; `O=P(O)(O)C(CO)(CO)OC[C@H]1O[C@@H](n2ncc3c(NC4CCCC4)cc(Cl)nc32)[C@H](O)[C@@H]1O` (racemic) [Example 200, rac-(2-(((2R,3S,4R,5R)-5-(6-chloro-4-(cyclopentylamino)-1H-pyrazolo[3,4-b]pyridin-1-yl)-3,4-dihydroxytetrahydrofuran-2-yl)methoxy)-1,3-dihydroxypropan-2-yl)phosphonic acid]: not below 7.00.

Source of the values: patent US11325938B2, “CD73 inhibitors” (ORIC Pharmaceuticals, Inc., priority 2018, dated 2022).
